Values after ≈ are worked out from the molar mass of the structure shown. “Also recorded” adds a separate entry of the source.
Key:
[1] = Hygroscopicity by DVS (Dynamic Vapor Sorption); assay type: physicochemical
[2] = Physical stability and conversion of solid forms (polymorph screen)
[3] = Solubility of Form A in water; assay type: physicochemical
[4] = Solubility of Form A in organic solvents; assay type: physicochemical

Q: For `O=C1Nc2ccccc2C(c2ccccc2)=N[C@@H]1Nc1nnc(-c2ncc(C(F)(F)F)cc2N2CCOCC2)o1` [Amorphous], which hygroscopicity [1] is on record?
A: Appeared non-hygroscopic

Q: What about the “conversion to another solid form” value [2] of the same compound?
A: Crystallizes to A

Q: Which solubility ([3]; aqueous buffer, from pH 4-8) does the source give for `O=C1Nc2ccccc2C(c2ccccc2)=N[C@@H]1Nc1nnc(-c2ncc(C(F)(F)F)cc2N2CCOCC2)o1` [Form A] here?
A: ~2 µg/mL (≈ 3.64 µM)

Q: What about the solubility ([3]; simulated gastric fluid, at pH 1) of the same compound?
A: 13.3 µg/mL (≈ 24.2 µM)

Q: And the “solubility in organic solvents” value ([4]; alcohols, ethyl acetate, acetonitrile)?
A: relatively poor solubility

Q: And the “solubility in organic solvents” value ([4]; dichloromethane, 1,4-dioxane, tetrahydrofuran, acetone)?
A: highly soluble

Q: And the hygroscopicity [1]?
A: not hygroscopic; also recorded: Anhydrous/unsolvated, non-hygroscopic

Q: What about the “weight gain during adsorption” value ([1]; DVS, adsorption to 95% RH) of the same compound?
A: 0.1 wt %

Q: What about the “moisture loss on desorption” value ([1]; DVS, desorption to 5% RH) of the same compound?
A: losing all of the gained moisture

Q: For `O=C1Nc2ccccc2C(c2ccccc2)=N[C@@H]1Nc1nnc(-c2ncc(C(F)(F)F)cc2N2CCOCC2)o1` [Form D], which “conversion to another solid form” value [2] is on record?
A: converts to Form F upon air drying

Q: For `O=C1Nc2ccccc2C(c2ccccc2)=N[C@@H]1Nc1nnc(-c2ncc(C(F)(F)F)cc2N2CCOCC2)o1` [Form F], which “conversion to another solid form” value [2] is on record?
A: Converts to G in ethyl acetate

Q: With `O=C1Nc2ccccc2C(c2ccccc2)=N[C@@H]1Nc1nnc(-c2ncc(C(F)(F)F)cc2N2CCOCC2)o1` [Form G] as the compound, how does the “physical stability of solid form” value [2] read?
A: physically stable at ambient temperature

Q: Which “conversion to another solid form” value [2] does the source give for `O=C1Nc2ccccc2C(c2ccccc2)=N[C@@H]1Nc1nnc(-c2ncc(C(F)(F)F)cc2N2CCOCC2)o1` [Material C] here?
A: desolvate readily to Form A; also recorded: Likely converts to A on drying

Reference: US20250145603A1, “CRYSTAL FORMS OF AN ANTI-RSV AGENT” (Enanta Pharmaceuticals, Inc., priority 2023, published 2025)
